In PubChem BioAssay (NCI):
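Five concentrations, 48 hours, 96-well plates. At the TGI there is no net growth.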

Columns and labels:
Assay in all cases: NCI anticancer screen, dose series, 48 h
[1] = test system: KM12 colon
[2] = test system: HL-60(TB) leukemia
[3] = test system: RXF 393 renal
[4] = test system: HCT-116 colon
[5] = test system: U251 CNS
[6] = test system: NCI-H522 lung
[7] = test system: MDA-MB-231 breast
[8] = test system: HOP-62 NSCLC
[9] = test system: CCRF-CEM leukemia
[10] = test system: SW-620 colon
[11] = test system: SN12C renal
[12] = test system: NCI-H226 lung
[13] = test system: BT-549 breast
[14] = test system: MALME-3M melanoma
[15] = test system: HS 578T breast

SMILES | TGI [1] [µM] | TGI [2] [µM] | TGI [3] [µM] | TGI [4] [µM] | TGI [5] [µM] | TGI [6] [µM] | TGI [7] [µM] | TGI [8] [µM] | TGI [9] [µM] | TGI [10] [µM] | TGI [11] [µM] | TGI [12] [µM] | TGI [13] [µM] | TGI [14] [µM] | TGI [15] [µM]
CC1=C(OC2OC(CO)C(O)C(O)C2O)C(=O)C[C@H]2C1=CC[C@@H]1[C@@]2(C)C(=O)C[C@]2(C)[C@@H]([C@@](C)(O)C(=O)CCC(C)(C)O)[C@H](O)C[C@@]12C (some centres undefined) | > 100 | > 100 | > 100 | > 100 | > 100 | > 100 | > 100 | > 100 | > 100 | > 100 | > 100 | > 100 | > 100 | > 100 | –
CCN(CC)Cc1cc(Nc2c3ccccc3nc3c2[nH]c2ccccc23)ccc1O | 4.66 | – | 2.77 | 1.91 | 2.79 | 2.33 | – | 3.16 | – | 3.43 | 6.22 | 5.06 | – | 3.31 | –
COc1ccc(CN(CCc2c[nH]c3ccccc23)Cc2ccc(OC)cc2)cc1 | 13.9 | – | 10.8 | – | – | 8.77 | – | 11.3 | > 100 | > 22 | 2.24 | 2.95 | 11.4 | 8.82 | 63
Cc1cc(Cl)ccc1N=NC(=O)NNc1ccc(Cl)cc1C | – | 45.8 | – | 26.7 | 31.4 | 35.1 | 26.6 | 23.9 | 58.5 | 30.2 | 30.1 | 36.1 | 32.2 | 37.9 | –
C=C[C@@]1(C)CC(=O)[C@]2(O)[C@@]3(C)[C@@H](OC(C)=O)CCC(C)(C)[C@@H]3[C@H](OC(C)=O)[C@H](OC(C)=O)[C@@]2(C)O1 | > 100 | – | – | > 100 | > 100 | – | > 100 | > 100 | – | > 100 | > 100 | > 100 | > 100 | – | –
CCOC(=O)CC[C@@H](NC(=O)c1ccc(N[C@@H]2c3cc4c(cc3C(c3cc(OC)c(O)c(OC)c3)C3C(=O)OC[C@@H]32)OCO4)cc1)C(=O)OCC (some centres undefined) | – | 0.05 | – | – | 0.123 | – | – | 0.0424 | > 10 | – | 0.0897 | – | – | 0.236 | –
O=C1CCC2SC1CCC2=O | > 100 | > 100 | > 100 | > 100 | > 100 | > 100 | > 100 | > 100 | > 100 | > 100 | > 100 | > 100 | > 100 | > 100 | –
COc1cc2[nH]c(-c3cccc(N(C)C)c3)cc(=O)c2cc1OC | > 60.1 | > 24.6 | – | > 100 | – | 17.6 | – | > 100 | > 100 | > 100 | > 100 | > 25.3 | – | > 100 | –
N#CC12C3C4CC5C6C4C1C6C(O)(C53)N2Cc1ccccc1 (centres undefined) | > 100 | > 100 | > 100 | > 100 | > 100 | > 100 | – | > 100 | > 100 | > 100 | > 100 | > 100 | – | > 100 | –
Cc1cc2c(s1)C(=O)c1sccc1C2=O | 3 | > 100 | 2.46 | 2.46 | 2.55 | 1.38 | 2.89 | – | > 100 | 0.719 | 1.25 | 3.37 | – | 0.311 | 2.52
CC1C[C@]2(C)C(=S)Nc3ccccc3[C@@H]2Nc2ccccc21 (some centres undefined) | 28.9 | 77 | 34.8 | 26.7 | – | – | 26.3 | 31.8 | 54.4 | 55.7 | 37.5 | 36.6 | – | 30.8 | 85.5
CCC(=O)COc1ccc(NC(NC(=O)C(C(F)(F)F)C(F)(F)F)(C(F)(F)F)C(F)(F)F)cc1 | > 100 | 56.1 | 48.7 | 67.6 | > 100 | 35.5 | 54.2 | > 100 | 61.8 | > 100 | – | 47.6 | – | 77.7 | > 100
CSc1cc(Cl)c(C)cc1S(=O)(=O)NC(=O)NNc1ccc(F)c(Cl)c1 | > 100 | – | > 100 | > 100 | > 100 | > 100 | > 100 | > 100 | > 100 | > 100 | > 100 | > 100 | – | > 100 | > 100
Cc1c2c(n(CCc3ccccc3)c1C)NN=C(C#N)S2(=O)=O | > 100 | – | – | > 100 | > 100 | > 100 | > 100 | > 100 | – | > 100 | > 100 | – | > 100 | > 100 | > 100
COC(=O)N/N=C/c1oc(-c2cccc([N+](=O)[O-])c2)c(-c2cccc([N+](=O)[O-])c2)c1[N+](=O)[O-] | > 100 | 55.4 | > 100 | > 100 | > 100 | > 100 | – | > 100 | 78.3 | > 100 | > 100 | – | – | – | –
S=C(Nc1cccc(Cl)c1)Nc1ccccn1 | > 100 | > 100 | > 100 | > 100 | > 100 | – | – | > 100 | > 100 | > 100 | > 100 | > 100 | > 100 | > 100 | > 100
NC1CC(=O)c2cc(Br)sc21 (centres undefined) | > 100 | > 100 | > 100 | > 100 | > 100 | – | > 100 | > 100 | > 100 | > 100 | > 100 | – | > 100 | > 100 | –
CNC(=O)c1n[nH][nH]c1=O | > 100 | > 100 | > 100 | > 100 | > 100 | > 100 | > 100 | > 100 | > 100 | > 100 | > 100 | > 100 | – | > 100 | > 100
